The values that follow are results of earlier work, collected in patent US20020160947A1, “Synergistic method for prolonging allograft survival” (Millennium Pharmaceuticals, Inc., priority 2001, published 2002).

For this series, the system named is activated T-cells. The note with it: activated versus resting T cells.

On to `CC(=O)N[C@@H](CSC(=O)[C@]1([C@@H](O)C(C)C)NC(=O)[C@H](C)[C@@H]1O)C(=O)O` [lactacystin], for which the “induction of apoptosis of T cells” value is “induction of apoptosis of activated T-cells, but not resting T cells”.
